US20120040976A1, “SMALL MOLECULE IMMUNOMODULATORS FOR ALZHEIMER'S DISEASE” (HUMAN BIOMOLECULAR RESEARCH INSTITUTE, priority 2008, published 2012)

Columns and labels:
[1] = Metabolic stability in human liver microsomes; format: in vitro ADME; settings: human, read-out: Half life, t1/2 HLM
[2] = Metabolic stability in human S9 fraction; format: in vitro ADME; settings: read-out: Half life, t1/2 S9
Average permeability = format: in vitro ADME; settings: not told
TLR 1 = TLR 1 transcription ratio, AD patient / control PBMCs (qPCR); format: cell-based, human; settings: Aβ stimulation
Experimental: (§1) qPCR reactions of cultured monocyte cDNAs. One μL total cellular cDNA per reaction is used in triplicate reactions for each test gene, and for each culture treatment. SYBR-Green reactions were run on a Continuous Fluorescence real-time thermocycler and analyzed. Cycle threshold (Ct) values are recorded for each replicate reaction, and are then averaged and normalized against mean Ct values from one or more control genes. Fold-expression differences relative to untreated cells are determined using the 2^−ΔΔCt method as previously described. Data from the curcumin concentration range are plotted in order to determine EC50 values (concentrations producing one-half maximal stimulant activity), which are used for comparisons of potency between different compounds. Data are also evaluated for each gene with regard to sensitivity, maximally effective concentration of curcuminoid, response to Aβ, and overall magnitude of fold-expression changes.
(§2) MGAT3 and/or TLR transcription were tested by qPCR in human monocyte cells treated with curcuminoids and compared the results to those treated with vehicle (Table 7). As discussed above, activation or up-regulation of macrophage MGAT3 or TLR's results in many functional outcomes, including the enhancement of […] and removal of Aβ, increased apoptosis, secretion of inflammatory cytokines, and other anti-AD antimicrobial activities. […]

TLR 2 = TLR 2 transcription ratio, AD patient / control PBMCs (qPCR); format: cell-based, human; settings: Aβ stimulation
Experimental: as §1
(§3) MGAT3 and/or TLR transcription were tested by qPCR in human monocyte cells treated with curcuminoids and compared the results to those treated with vehicle (Table 7). As discussed above, activation or up-regulation of macrophage MGAT3 or TLR's results in many functional outcomes, including the enhancement of […] and removal of Aβ, increased apoptosis, secretion of inflammatory cytokines, and other anti-AD antimicrobial activities. […] Thus, the ratio of MGAT3 or TLR transcription upon Aβ stimulation of human monocytes versus vehicle treatment provides an indicator and sensitive method to test the in vitro efficacy of drug candidates. […] The relative biological activity of the curcumin analogs in AD patient and control cells was ascertained in the in vitro Aβ assay described above (see Example 2).

TLR 4 = TLR 4 transcription ratio, AD patient / control PBMCs (qPCR); format: cell-based, human; settings: Aβ stimulation
Experimental: as §1, §3

TLR 6 = TLR 6 transcription ratio, AD patient / control PBMCs (qPCR); format: cell-based, human; settings: Aβ stimulation
Experimental: as §1, §2

TLR 10 = TLR 10 transcription ratio, AD patient / control PBMCs (qPCR); format: cell-based, human; settings: Aβ stimulation
Experimental: as §1, §2

[3] = test system: cortical neurons in hAPP-transfected rat brain slices; experiment: Rat brain slice AD model (hAPP-induced neurodegeneration); format: cell-based; settings: rat brain slices transfected with EYFP and hAPP, three concentrations, 72 hrs (FIG. 8)
Source text: A rodent brain slice model for AD has been developed where the expression of human APP by particle-mediated gene transfer (“biolistics”) leads to typical signs of neuronal dystrophy, and ultimately the degeneration and clearance of the cell body with a few days. Brain slice preparations offer a powerful experimental system because they preserve the three-dimensional tissue architecture and local environment of neurons and glia far better than dissociated cell culture. As such, drug lead candidates that show neuroprotective activity in brain-tissue based disease models have a much increased ability to predict efficacy in vivo and ultimately in the clinic.
Preparation of Brain Slice Explants. Cd Sprague-Dawley Rat Pups are Used at Postnatal day 10. Brains are cut into 250 μm coronal slices on a vibratome in chilled medium baths. Approximately 6 such slices can be cut from each rat brain; each are divided into “hemi-coronal” slices which are placed in individual 6-well transwell inserts. […]
Assessment of cortical neuron health. […] Representative images are captured using a digital camera on a fluorescence microscope. After 3 days, cortical neurons are scored. […] Statistical significance of the neuronal counts in compound-treated slices is evaluated by ANOVA analysis, followed by post hoc Dunnett's analysis at the p≦0.05 confidence level. […]

`O=C(/C=C(O)/C=C/c1ccc(O)cc1)/C=C/c1ccc(O)cc1` [Compound 1, 5-Hydroxy-1,7-bis-(4-hydroxy-phenyl)-hepta-1,4,6-trien-3-one, reference compound] gave a half-life [1] of 16.4 min, a half-life [2] of 4 min and a Papp (Average permeability) of 3050 ± 90 nm/s. The “Relative ratio of TLR 1 transcription in AD patient / control PBMC's” value (TLR 1) was “TLR 1 ++ ((++) indicates a ratio of 1.5-2.0)”, the “Relative ratio of TLR 2 transcription in AD patient / control PBMC's” value (TLR 2) was “TLR 2 + ((+) indicates a ratio of 1.0-1.5)” and the “Relative ratio of TLR 4 transcription in AD patient / control PBMC's” value (TLR 4) was “TLR 4 +++ ((+++ to ++++) indicates a ratio of 2.0 and above)”. The “Relative ratio of TLR 6 transcription in AD patient / control PBMC's” value (TLR 6) was “TLR 6 + ((+) indicates a ratio of 1.0-1.5)”, the “Relative ratio of TLR 10 transcription in AD patient / control PBMC's” value (TLR 10) was “TLR 10 ++ ((++) indicates a ratio of 1.5-2.0)” and the “Neuroprotective effect against hAPP-induced neurodegeneration” value [3] was “dose-dependent trend for AD related neuroprotection”.
